# Test results reported in US11254663B2 (BRISTOL-MYERS SQUIBB COMPANY, priority 2019, dated 2022).
# Target: FXR (Homo sapiens (Human), UniProt Q96RI1)
# Test: transient human FXR/Gal4-luciferase reporter assay
# Assay type: cell-based
# Settings: not given
# Outline: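 Compound exposure ran overnight at 37 °C and activity was measured as luminescence with Steady-Glo reagent. The cells were a HEK293 line stably expressing firefly luciferase under five Gal4 response elements. They were transiently transfected, one night beforehand, with a plasmid encoding Gal4 DNA-binding domain fused to the human FXR ligand-binding domain.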
# Chain of FXR (Q96RI1 262-486): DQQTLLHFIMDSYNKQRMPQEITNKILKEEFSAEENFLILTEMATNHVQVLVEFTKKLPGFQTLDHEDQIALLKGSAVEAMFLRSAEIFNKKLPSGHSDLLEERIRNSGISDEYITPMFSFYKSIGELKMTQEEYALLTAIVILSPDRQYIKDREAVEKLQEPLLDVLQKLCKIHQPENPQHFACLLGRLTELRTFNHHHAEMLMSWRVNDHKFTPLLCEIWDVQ
row,SMILES,EC50
1,"CCOc1ccc(-c2ccnc(N(CC34CCC(c5noc(C(C)(C)C)n5)(CC3)CC4)C(=O)C34CC(F)(C3)C4)c2)cn1 [Example 536, N-((4-(5-(tert-butyl)-1,2,4-oxadiazol-3-yl)bicyclo[2.2.2]octan-1-yl)methyl)-N-(6-ethoxy-[3,4′-bipyridin]-2′-yl)-3-fluorobicyclo[1.1.1]pentane-1-carboxamide]",29 nM
2,"O=C(N(CC12CCC(c3noc(C(F)F)n3)(CC1)CC2)c1cccc(-c2cnc(C(F)(F)F)nc2)c1)C12CC(F)(C1)C2 [Example 464, N-((4-(5-(difluoromethyl)-1,2,4-oxadiazol-3-yl)bicyclo[2.2.2]octan-1-yl)methyl)-3-fluoro-N-(3-(2-(trifluoromethyl)pyrimidin-5-yl)phenyl)bicyclo[1.1.1]pentane-1-carboxamide]",654 nM
3,"CS(=O)(=O)Nc1ccc(-c2cccc(N(CC34CCC(c5noc(C6(C(F)(F)F)CC6)n5)(CC3)CC4)C(=O)C34CC(F)(C3)C4)c2)cc1 [Example 523, 3-fluoro-N-(4′-(methylsulfonamido)-[1,1′-biphenyl]-3-yl)-N-((4-(5-(1-(trifluoromethyl)cyclopropyl)-1,2,4-oxadiazol-3-yl)bicyclo[2.2.2]octan-1-yl)methyl)bicyclo[1.1.1]pentane-1-carboxamide]",189 nM
4,"O=C(N(CC12CCC(c3nc(C(F)F)no3)(CC1)CC2)c1cccc(-c2cnc(C(F)(F)F)nc2)c1)C12CC(F)(C1)C2 [Example 467, N-((4-(3-(difluoromethyl)-1,2,4-oxadiazol-5-yl)bicyclo[2.2.2]octan-1-yl)methyl)-3-fluoro-N-(3-(2-(trifluoromethyl)pyrimidin-5-yl)phenyl)bicyclo[1.1.1]pentane-1-carboxamide]",2110 nM
5,"O=C(C1CC(F)(F)C1)N(CC12CCC(c3nc(C4CC4)no3)(CC1)CC2)c1cccc(-c2nc3cc(F)ccc3o2)c1 [Example 560, N-((4-(3-cyclopropyl-1,2,4-oxadiazol-5-yl)bicyclo[2.2.2]octan-1-yl)methyl)-3,3-difluoro-N-(3-(5-fluorobenzo[d]oxazol-2-yl)phenyl)cyclobutane-1-carboxamide]",1510 nM

# Same assay, conditions: Gal4-hFXR fusion construct, HEK293 reporter cells; response relative to 8 μM GW-4064
row,EC50,SMILES
1,53 nM,"CC(C)Oc1ccc(-c2cccc(N(CC34CCC(c5cc(C(C)(F)F)nn5C)(CC3)CC4)C(=O)NC(C)(C)C)c2)cc1 [Example 659, 3-(tert-butyl)-1-((4-(3-(1,1-difluoroethyl)-1-methyl-1H-pyrazol-5-yl)bicyclo[2.2.2]octan-1-yl)methyl)-1-(4′-isopropoxy-[1,1′-biphenyl]-3-yl)urea]"
2,105 nM,"Cn1nc(C2CC2)cc1C12CCC(CN(C(=O)C34CC(F)(C3)C4)c3cccc(-c4ccc(NS(C)(=O)=O)cc4)c3)(CC1)CC2 [Example 412, N-((4-(3-cyclopropyl-1-methyl-1H-pyrazol-5-yl)bicyclo[2.2.2]octan-1-yl)methyl)-3-fluoro-N-(4′-(methylsulfonamido)-[1,1′-biphenyl]-3-yl)bicyclo[1.1.1]pentane-1-carboxamide]"
3,28 nM,"CC(C)(C)COC(=O)N(CC12CCC(c3noc(C(C)(F)F)n3)(CC1)CC2)c1cc(-c2ccc(C(C)(C)O)cc2)c(F)cn1 [Example 619, Neopentyl ((4-(5-(1,1-difluoroethyl)-1,2,4-oxadiazol-3-yl)bicyclo[2.2.2]octan-1-yl)methyl) (5-fluoro-4-(4-(2-hydroxypropan-2-yl)phenyl)pyridin-2-yl) carbamate]"
4,970 nM,"CC(C)(F)c1nc(C23CCC(CN(c4cccc(N5CC6(COC6)C5)c4)C(=O)[C@H]4C[C@](O)(C(F)(F)F)C4)(CC2)CC3)no1 [Example 592, (cis)-N-(3-(2-oxa-6-azaspiro[3.3]heptan-6-yl)phenyl)-N-((4-(5-(2-fluoropropan-2-yl)-1,2,4-oxadiazol-3-yl)bicyclo[2.2.2]octan-1-yl)methyl)-3-hydroxy-3-(trifluoromethyl)cyclobutane-1-carboxamide]"
5,67 nM,"CC(C)Oc1ccc(-c2ccnc(N(CC34CCC(c5cc(C(C)(F)F)nn5C)(CC3)CC4)C(=O)OC(C)(C)C(F)(F)F)c2)cc1 [Example 657, 1,1,1-trifluoro-2-methylpropan-2-yl ((4-(3-(1,1-difluoroethyl)-1-methyl-1H-pyrazol-5-yl)bicyclo[2.2.2]octan-1-yl)methyl)(4-(4-isopropoxyphenyl)pyridin-2-yl)carbamate]"
6,11 nM,"CC(C)(F)c1nc(C23CCC(CN(c4cccc(C5=CC6(C5)CC(C(C)(C)O)C6)c4)C(=O)[C@H]4C[C@](O)(C(F)(F)F)C4)(CC2)CC3)no1 (stereo partly drawn) [Example 590, (cis)-N-((4-(5-(2-fluoropropan-2-yl)-1,2,4-oxadiazol-3-yl)bicyclo[2.2.2]octan-1-yl)methyl)-3-hydroxy-N-(3-(6-(2-hydroxypropan-2-yl)spiro[3.3]hept-1-en-2-yl)phenyl)-3-(trifluoromethyl)cyclobutane-1-carboxamide]"
7,39 nM,"CCOc1ncc(-c2cccc(N(CC34CCC(c5noc(C(C)(C)C)n5)(CC3)CC4)C(=O)C34CC(F)(C3)C4)c2)cn1 [Example 437, N-((4-(5-(tert-butyl)-1,2,4-oxadiazol-3-yl)bicyclo[2.2.2]octan-1-yl)methyl)-N-(3-(2-ethoxypyrimidin-5-yl)phenyl)-3-fluorobicyclo[1.1.1]pentane-1-carboxamide]"
8,592 nM,"COc1cc(-c2cccc(N(CC34CCC(c5nnc(C)o5)(CC3)CC4)C(=O)C3CCC3)c2)ccn1 [Example 231, N-(3-(2-methoxypyridin-4-yl)phenyl)-N-((4-(5-methyl-1,3,4-oxadiazol-2-yl)bicyclo[2.2.2]octan-1-yl)methyl)cyclobutanecarboxamide]"
9,1820 nM,"O=C(C1CC(O)(C(F)(F)F)C1)N(CC12CCC(NS(=O)(=O)C(F)(F)F)(CC1)CC2)c1cccc(-c2ccc(OC(F)F)cc2)c1 (stereo not drawn) [Example 603, (cis)-N-(4′-(difluoromethoxy)-[1,1′-biphenyl]-3-yl)-3-hydroxy-3-(trifluoromethyl)-N-((4-((trifluoromethyl)sulfonamido)bicyclo[2.2.2]octan-1-yl)methyl)cyclobutane-1-carboxamide]"
10,968 nM,"CC(C)NC(=O)NC12CCC(CN(C(=O)C3CC(O)(C(F)(F)F)C3)c3cccc(-c4ccc(OC(C)C)cc4)c3)(CC1)CC2 (stereo not drawn) [Example 604, (cis)-3-hydroxy-N-(4′-isopropoxy-[1,1′-biphenyl]-3-yl)-N-((4-(3-isopropylureido)bicyclo[2.2.2]octan-1-yl)methyl)-3-(trifluoromethyl)cyclobutane-1-carboxamide]"

row,SMILES,EC50
1,CS(=O)(=O)Nc1ccc(-c2cncc(N(CC34CCC(c5nc(C6CC6)no5)(CC3)CC4)C(=O)C34CC(F)(C3)C4)c2)cc1 [Example 427],671 nM
2,"Cc1nc2ncc(-c3cccc(N(CC45CCC(c6nc(C(C)(C)C)no6)(CC4)CC5)C(=O)C45CC(F)(C4)C5)c3)cc2s1 [Example 365, N-((4-(3-(tert-butyl)-1,2,4-oxadiazol-5-yl)bicyclo[2.2.2]octan-1-yl)methyl)-3-fluoro-N-(3-(2-methylthiazolo[4,5-b]pyridin-6-yl)phenyl)bicyclo[1.1.1]pentane-1-carboxamide]",84 nM
3,"Cc1nc2c(C)cc(-c3cccc(N(CC45CCC(c6nc(C7CC7)no6)(CC4)CC5)C(=O)C45CC(F)(C4)C5)c3)cn2n1 [Example 265, N-((4-(3-cyclopropyl-1,2,4-oxadiazol-5-yl)bicyclo[2.2.2]octan-1-yl)methyl)-N-(3-(2,8-dimethyl-[1,2,4]triazolo[1,5-a]pyridin-6-yl)phenyl)-3-fluorobicyclo[1.1.1]pentane-1-carboxamide]",510 nM
4,"COc1cnc(-c2cccc(N(CC34CCC(c5noc(C(C)(C)C)n5)(CC3)CC4)C(=O)C34CC(F)(C3)C4)c2)nc1 [Example 450, N-((4-(5-(tert-butyl)-1,2,4-oxadiazol-3-yl)bicyclo[2.2.2]octan-1-yl)methyl)-3-fluoro-N-(3-(5-methoxypyrimidin-2-yl)phenyl)bicyclo[1.1.1]pentane-1-carboxamide]",68 nM
5,"Cc1nc2ccc(-c3cccc(N(CC45CCC(c6nc(C(C)C)no6)(CC4)CC5)C(=O)C45CC(F)(C4)C5)c3)cc2s1 [Example 378, 3-fluoro-N-((4-(3-isopropyl-1,2,4-oxadiazol-5-yl)bicyclo[2.2.2]octan-1-yl)methyl)-N-(3-(2-methylbenzo[d]thiazol-6-yl)phenyl)bicyclo[1.1.1]pentane-1-carboxamide]",53 nM
6,"O=C(N(CC12CCC(c3nc(C4CC4)no3)(CC1)CC2)c1cccc(-c2nccc(C(F)(F)F)n2)c1)C12CC(F)(C1)C2 [Example 291, N-((4-(3-cyclopropyl-1,2,4-oxadiazol-5-yl)bicyclo[2.2.2]octan-1-yl)methyl)-3-fluoro-N-(3-(4-(trifluoromethyl)pyrimidin-2-yl)phenyl)bicyclo[1.1.1]pentane-1-carboxamide]",439 nM
7,"Cc1ccnc(-c2cccc(N(CC34CCC(c5nc(C6CC6)no5)(CC3)CC4)C(=O)C34CC(F)(C3)C4)c2)n1 [Example 300, N-((4-(3-cyclopropyl-1,2,4-oxadiazol-5-yl)bicyclo[2.2.2]octan-1-yl)methyl)-3-fluoro-N-(3-(4-methylpyrimidin-2-yl)phenyl)bicyclo[1.1.1]pentane-1-carboxamide]",413 nM
8,"CC(C)c1noc(C23CCC(CN(C(=O)C45CC(F)(C4)C5)c4cccc(-c5ccc(C(F)(F)F)cc5)c4)(CC2)CC3)n1 [Example 380, 3-fluoro-N-((4-(3-isopropyl-1,2,4-oxadiazol-5-yl)bicyclo[2.2.2]octan-1-yl)methyl)-N-(4′-(trifluoromethyl)-[1,1′-biphenyl]-3-yl)bicyclo[1.1.1]pentane-1-carboxamide]",283 nM
9,"Cc1cc(-c2cccc(N(CC34CCC(c5nc(C6CC6)no5)(CC3)CC4)C(=O)C34CC(F)(C3)C4)c2)nc2scnc12 [Example 327, N-((4-(3-cyclopropyl-1,2,4-oxadiazol-5-yl)bicyclo[2.2.2]octan-1-yl)methyl)-3-fluoro-N-(3-(7-methylthiazolo[5,4-b]pyridin-5-yl)phenyl)bicyclo[1.1.1]pentane-1-carboxamide]",303 nM
